Activity calls are given as the source filed them. No cut-off for these calls is given here.
How the values were obtained:
[1] = target: 5-hydroxytryptamine receptor 2A (Rattus norvegicus, UniProt P14842); assay: biochemical
[2] = target: D(2) dopamine receptor (Rattus norvegicus, UniProt P61169); assay: biochemical
Description: Displacement of [3H]spiperone from D2 receptor in rat striatum measured after 15 mins by liquid scintillation counting method

[3] = target: T1, 5-hydroxytryptamine receptor 1A (Rattus norvegicus, UniProt P19327); assay: biochemical
T1 sequence (P19327 whole entry): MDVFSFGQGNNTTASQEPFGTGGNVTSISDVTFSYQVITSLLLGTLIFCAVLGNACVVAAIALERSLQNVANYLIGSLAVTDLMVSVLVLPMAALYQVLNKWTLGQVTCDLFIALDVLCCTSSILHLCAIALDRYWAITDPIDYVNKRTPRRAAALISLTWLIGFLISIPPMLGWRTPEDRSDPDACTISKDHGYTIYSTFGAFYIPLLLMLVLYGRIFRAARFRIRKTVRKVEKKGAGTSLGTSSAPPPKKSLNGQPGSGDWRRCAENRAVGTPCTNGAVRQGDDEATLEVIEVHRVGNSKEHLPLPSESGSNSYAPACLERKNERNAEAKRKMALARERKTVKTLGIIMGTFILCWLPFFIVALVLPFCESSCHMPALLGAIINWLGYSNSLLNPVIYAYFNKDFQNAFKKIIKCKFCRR
Description: Displacement of [3H](+)8-OH-DPAT from rat cerebral cortex 5HT1A receptor measured after 30 mins by liquid scintillation counting method

[4] = Displacement of [3H]ketanserin from human 5HT2A receptor expressed in CHO-K1 cells measured after 20 mins
[5] = mouse, in vivo, po
Description: Toxicity in po dosed Kunming mouse assessed as catalepsy

[6] = species: Mus musculus; assay: animal or person; details: Kunming, po
[7] = Therapeutic index, ratio of ED50 for toxicity in po dosed Kunming mouse assessed as catalepsy to ED50 for antipsychotic activity in Kunming mouse assessed as inhibition of apomorphine-induced climbing behavior; type: organism-based; details: in vivo, read-out: Ratio ED50
[8] = Therapeutic index, ratio of ED50 for toxicity in po dosed Kunming mouse assessed as catalepsy to ED50 for antipsychotic activity in Kunming mouse assessed as inhibition of MK801-induced locomotor activity; type: organism-based; details: in vivo, read-out: Ratio ED50
[9] = species: Mus musculus; assay: animal or person; details: Kunming, po; remark: listed apart in the source
Description: Antipsychotic activity in Kunming mouse assessed as inhibition of MK801-induced locomotor activity administered orally 30 mins prior to MK801 challenge and measured for 90 mins

[10] = target: D(3) dopamine receptor (Homo sapiens, UniProt P35462)
Chain of D(3) dopamine receptor (P35462 whole entry): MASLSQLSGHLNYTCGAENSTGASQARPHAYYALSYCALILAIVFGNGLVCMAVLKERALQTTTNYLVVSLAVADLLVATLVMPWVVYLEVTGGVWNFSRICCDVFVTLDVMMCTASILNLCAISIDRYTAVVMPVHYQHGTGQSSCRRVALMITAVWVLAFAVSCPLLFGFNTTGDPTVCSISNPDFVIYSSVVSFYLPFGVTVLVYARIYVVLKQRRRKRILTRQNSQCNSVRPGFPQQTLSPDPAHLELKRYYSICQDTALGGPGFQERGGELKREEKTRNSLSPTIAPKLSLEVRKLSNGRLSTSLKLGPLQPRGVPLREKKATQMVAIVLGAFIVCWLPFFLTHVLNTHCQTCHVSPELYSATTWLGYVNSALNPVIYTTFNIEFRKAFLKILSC
Description: Binding affinity to D3 receptor (unknown origin)

[11] = target: 5-hydroxytryptamine receptor 2C (Homo sapiens, UniProt P28335); assay: Binding affinity to 5HT2C receptor (unknown origin)
Chain of 5-hydroxytryptamine receptor 2C (Homo sapiens, UniProt P28335) (P28335 whole entry): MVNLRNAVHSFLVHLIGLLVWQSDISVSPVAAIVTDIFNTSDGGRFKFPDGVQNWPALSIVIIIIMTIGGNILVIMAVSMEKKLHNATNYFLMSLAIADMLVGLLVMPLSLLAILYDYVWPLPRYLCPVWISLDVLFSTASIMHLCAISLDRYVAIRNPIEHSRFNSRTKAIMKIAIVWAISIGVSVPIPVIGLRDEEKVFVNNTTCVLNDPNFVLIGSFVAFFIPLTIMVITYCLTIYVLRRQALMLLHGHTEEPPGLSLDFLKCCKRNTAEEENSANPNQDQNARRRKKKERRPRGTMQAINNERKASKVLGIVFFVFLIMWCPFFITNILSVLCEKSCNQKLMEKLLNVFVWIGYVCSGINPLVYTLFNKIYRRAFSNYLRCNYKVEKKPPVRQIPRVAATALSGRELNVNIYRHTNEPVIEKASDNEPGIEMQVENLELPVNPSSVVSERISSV

[12] = target: Histamine H1 receptor (Homo sapiens, UniProt P35367); assay: Binding affinity to H1 receptor (unknown origin)
Chain of Histamine H1 receptor (Homo sapiens, UniProt P35367) (P35367 whole entry): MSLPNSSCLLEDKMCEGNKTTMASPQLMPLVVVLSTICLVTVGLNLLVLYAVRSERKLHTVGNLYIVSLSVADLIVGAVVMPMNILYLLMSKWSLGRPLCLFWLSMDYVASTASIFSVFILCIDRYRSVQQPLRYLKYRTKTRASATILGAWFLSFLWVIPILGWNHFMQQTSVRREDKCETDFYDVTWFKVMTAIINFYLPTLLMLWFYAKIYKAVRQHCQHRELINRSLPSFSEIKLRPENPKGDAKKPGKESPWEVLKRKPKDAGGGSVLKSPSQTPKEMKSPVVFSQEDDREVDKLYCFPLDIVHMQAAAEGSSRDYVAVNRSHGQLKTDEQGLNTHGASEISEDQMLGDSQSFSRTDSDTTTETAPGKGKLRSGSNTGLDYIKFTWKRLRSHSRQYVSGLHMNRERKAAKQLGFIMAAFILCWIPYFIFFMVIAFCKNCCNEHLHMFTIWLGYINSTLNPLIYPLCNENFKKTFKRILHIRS

[13] = target: D(2) dopamine receptor (Homo sapiens, UniProt P14416); assay: Binding affinity to D2 receptor (unknown origin)
Chain of D(2) dopamine receptor (Homo sapiens, UniProt P14416) (P14416 whole entry): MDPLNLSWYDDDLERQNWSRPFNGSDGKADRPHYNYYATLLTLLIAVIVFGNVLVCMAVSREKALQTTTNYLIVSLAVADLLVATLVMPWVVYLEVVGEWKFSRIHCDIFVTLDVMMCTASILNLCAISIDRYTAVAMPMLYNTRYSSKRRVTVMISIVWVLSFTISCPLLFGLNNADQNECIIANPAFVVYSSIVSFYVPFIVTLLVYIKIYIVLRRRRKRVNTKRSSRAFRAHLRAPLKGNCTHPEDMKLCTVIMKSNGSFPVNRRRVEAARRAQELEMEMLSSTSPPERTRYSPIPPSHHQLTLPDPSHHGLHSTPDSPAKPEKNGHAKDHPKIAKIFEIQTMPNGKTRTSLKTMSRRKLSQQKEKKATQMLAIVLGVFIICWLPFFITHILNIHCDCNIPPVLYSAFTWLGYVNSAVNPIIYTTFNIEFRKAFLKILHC

[14] = target: 5-hydroxytryptamine receptor 2A (Homo sapiens, UniProt P28223); assay: Binding affinity to 5HT2A receptor (unknown origin)
Chain of 5-hydroxytryptamine receptor 2A (Homo sapiens, UniProt P28223) (P28223 whole entry): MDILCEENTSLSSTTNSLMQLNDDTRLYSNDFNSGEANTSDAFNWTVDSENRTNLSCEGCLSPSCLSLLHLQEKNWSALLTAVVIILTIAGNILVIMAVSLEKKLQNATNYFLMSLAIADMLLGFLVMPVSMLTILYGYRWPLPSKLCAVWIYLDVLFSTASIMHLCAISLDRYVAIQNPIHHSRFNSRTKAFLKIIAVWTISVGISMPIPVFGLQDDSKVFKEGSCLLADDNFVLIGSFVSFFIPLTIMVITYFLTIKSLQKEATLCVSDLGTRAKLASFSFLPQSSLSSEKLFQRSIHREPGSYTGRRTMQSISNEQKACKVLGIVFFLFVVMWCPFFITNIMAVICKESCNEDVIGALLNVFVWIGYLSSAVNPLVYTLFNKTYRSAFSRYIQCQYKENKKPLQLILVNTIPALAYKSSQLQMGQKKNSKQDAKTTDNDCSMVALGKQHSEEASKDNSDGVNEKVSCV

[15] = target: 5-hydroxytryptamine receptor 1A (Homo sapiens, UniProt P08908); assay: Binding affinity to 5HT1A receptor (unknown origin)
Chain of 5-hydroxytryptamine receptor 1A (Homo sapiens, UniProt P08908) (P08908 whole entry): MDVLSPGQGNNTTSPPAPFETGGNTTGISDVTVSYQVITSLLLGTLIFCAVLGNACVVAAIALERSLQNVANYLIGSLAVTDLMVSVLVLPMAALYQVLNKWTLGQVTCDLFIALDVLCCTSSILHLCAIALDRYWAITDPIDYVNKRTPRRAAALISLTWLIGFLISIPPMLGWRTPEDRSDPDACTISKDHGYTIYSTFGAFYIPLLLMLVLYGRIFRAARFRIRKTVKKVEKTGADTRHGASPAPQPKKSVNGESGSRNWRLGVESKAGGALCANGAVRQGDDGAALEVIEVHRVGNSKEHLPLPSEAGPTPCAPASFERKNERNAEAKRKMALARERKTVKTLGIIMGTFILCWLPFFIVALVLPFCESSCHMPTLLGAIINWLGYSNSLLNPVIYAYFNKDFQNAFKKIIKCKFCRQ

[16] = Effect on spontaneous locomotor activity in Kunming mouse assessed as total distance traveled at 3 mg/kg, ig measured after 1 hr (reference value: 13579 +/- 8864 millimeter); type: ADME, organism-based; details: in vivo, po
[17] = Effect on spontaneous locomotor activity in Kunming mouse assessed as total distance traveled at 10 mg/kg, ig measured after 1 hr (reference value: 13579 +/- 8864 millimeter); type: ADME, organism-based; details: in vivo, po
[18] = Effect on spontaneous locomotor activity in Kunming mouse assessed as total distance traveled at 1 mg/kg, ig measured after 1 hr (reference value: 13579 +/- 8864 millimeter); type: ADME, organism-based; details: in vivo, po
[19] = Effect on total exploration time in Sprague-Dawley rat at 0.2 mg/kg, po measured after 1 hr by novel object recognition test; type: ADME, organism-based; details: in vivo
[20] = system: Rattus norvegicus; assay: Cognitive enhancement effect in Sprague-Dawley rat assessed as increase in time spent in exploring novel object at 0.2 mg/kg, po administered 1 hr prior to acquisition trial and measured after 24 hrs by novel object recognition test; type: functional, organism-based
[21] = species: Mus musculus; assay: animal or person; details: Kunming, po, 1.333 h
[22] = Toxicity in Kunming mouse assessed as change in body weight at 0.1 to 0.3 mg/kg, po administered for 28 days measured daily during compound dosing; type: organism-based; details: in vivo, 672 h, dose 0.1-0.3 mg/kg, time 28 day
[23] = target: Adrenergic receptor alpha-1 (Rattus norvegicus, UniProt P15823+P23944+P43140)
Description: Displacement of [3H]prazosin from rat cerebral cortex alpha1 adrenergic receptor measured after 60 mins by liquid scintillation counting method

[24] = target: 5-hydroxytryptamine receptor 7 (Rattus norvegicus, UniProt P32305); assay: biochemical
Chain of 5-hydroxytryptamine receptor 7 (P32305 whole entry): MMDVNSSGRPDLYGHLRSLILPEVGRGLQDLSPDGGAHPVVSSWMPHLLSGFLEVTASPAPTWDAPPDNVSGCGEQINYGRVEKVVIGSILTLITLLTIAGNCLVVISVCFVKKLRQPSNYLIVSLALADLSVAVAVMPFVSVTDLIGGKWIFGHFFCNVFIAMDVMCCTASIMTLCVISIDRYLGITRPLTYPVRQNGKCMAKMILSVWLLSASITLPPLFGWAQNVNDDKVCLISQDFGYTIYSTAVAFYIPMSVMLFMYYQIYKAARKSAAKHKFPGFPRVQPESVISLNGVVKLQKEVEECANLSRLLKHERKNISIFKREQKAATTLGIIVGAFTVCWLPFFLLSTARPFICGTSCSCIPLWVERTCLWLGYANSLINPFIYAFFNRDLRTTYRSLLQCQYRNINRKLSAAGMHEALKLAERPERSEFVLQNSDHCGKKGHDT

[25] = target: Histamine H1 receptor (Cavia porcellus, UniProt P31389)
Description: Displacement of [3H]pyrilamine from guinea pig cerebellum histamine H1 receptor measured after 60 mins by liquid scintillation counting method

[26] = target: 5-hydroxytryptamine receptor 2C (Rattus norvegicus, UniProt P08909)
Chain of 5-hydroxytryptamine receptor 2C (Rattus norvegicus, UniProt P08909) (P08909 whole entry): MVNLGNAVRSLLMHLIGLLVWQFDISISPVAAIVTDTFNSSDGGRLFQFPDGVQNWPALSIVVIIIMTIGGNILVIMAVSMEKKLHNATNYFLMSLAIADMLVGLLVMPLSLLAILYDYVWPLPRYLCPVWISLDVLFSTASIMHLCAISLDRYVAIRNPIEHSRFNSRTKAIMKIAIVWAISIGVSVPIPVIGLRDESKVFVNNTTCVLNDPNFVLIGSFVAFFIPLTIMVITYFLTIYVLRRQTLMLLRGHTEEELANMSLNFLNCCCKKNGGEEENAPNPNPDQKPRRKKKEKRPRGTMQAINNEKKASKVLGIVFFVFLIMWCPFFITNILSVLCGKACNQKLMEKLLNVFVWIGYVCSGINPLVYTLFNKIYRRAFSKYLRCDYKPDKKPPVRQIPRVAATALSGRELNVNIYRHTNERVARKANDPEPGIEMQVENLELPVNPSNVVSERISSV
Description: Displacement of [3H]mesulergine from rat cerebral cortex 5HT2C receptor measured after 15 mins by liquid scintillation counting method

[27] = target: 5-hydroxytryptamine receptor 6 (Homo sapiens, UniProt P50406)
Chain of 5-hydroxytryptamine receptor 6 (P50406 whole entry): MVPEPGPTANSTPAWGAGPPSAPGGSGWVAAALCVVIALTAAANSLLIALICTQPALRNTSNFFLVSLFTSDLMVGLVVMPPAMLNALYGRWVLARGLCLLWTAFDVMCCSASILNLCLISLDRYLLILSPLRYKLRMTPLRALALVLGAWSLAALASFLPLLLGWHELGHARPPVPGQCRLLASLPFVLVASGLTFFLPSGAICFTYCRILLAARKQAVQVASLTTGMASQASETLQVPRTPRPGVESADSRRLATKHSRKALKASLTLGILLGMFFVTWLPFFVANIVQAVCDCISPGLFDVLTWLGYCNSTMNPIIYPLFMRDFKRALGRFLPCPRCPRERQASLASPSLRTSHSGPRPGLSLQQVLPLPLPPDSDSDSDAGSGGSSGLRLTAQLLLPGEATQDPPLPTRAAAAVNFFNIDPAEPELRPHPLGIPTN
Description: Displacement of [3H]lysergic acid diethylamide from human recombinant 5HT6 receptor stably expressed in CHO cell membranes measured after 30 mins by liquid scintillation counting method

Chain of D(2) dopamine receptor (Rattus norvegicus, UniProt P61169) (P61169 whole entry): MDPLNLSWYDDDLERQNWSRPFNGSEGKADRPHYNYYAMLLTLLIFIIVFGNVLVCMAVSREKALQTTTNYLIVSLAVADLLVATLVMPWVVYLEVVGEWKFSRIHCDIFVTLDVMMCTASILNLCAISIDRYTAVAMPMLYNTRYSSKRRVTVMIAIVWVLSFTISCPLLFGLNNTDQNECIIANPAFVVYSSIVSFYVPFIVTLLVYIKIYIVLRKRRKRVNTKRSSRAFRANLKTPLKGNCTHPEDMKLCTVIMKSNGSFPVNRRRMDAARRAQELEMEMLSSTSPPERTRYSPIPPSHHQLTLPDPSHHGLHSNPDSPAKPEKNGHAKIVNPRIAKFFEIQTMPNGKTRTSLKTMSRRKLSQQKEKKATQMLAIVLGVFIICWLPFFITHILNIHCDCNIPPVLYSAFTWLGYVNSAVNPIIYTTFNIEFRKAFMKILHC
Chain of 5-hydroxytryptamine receptor 2A (Rattus norvegicus, UniProt P14842) (P14842 whole entry): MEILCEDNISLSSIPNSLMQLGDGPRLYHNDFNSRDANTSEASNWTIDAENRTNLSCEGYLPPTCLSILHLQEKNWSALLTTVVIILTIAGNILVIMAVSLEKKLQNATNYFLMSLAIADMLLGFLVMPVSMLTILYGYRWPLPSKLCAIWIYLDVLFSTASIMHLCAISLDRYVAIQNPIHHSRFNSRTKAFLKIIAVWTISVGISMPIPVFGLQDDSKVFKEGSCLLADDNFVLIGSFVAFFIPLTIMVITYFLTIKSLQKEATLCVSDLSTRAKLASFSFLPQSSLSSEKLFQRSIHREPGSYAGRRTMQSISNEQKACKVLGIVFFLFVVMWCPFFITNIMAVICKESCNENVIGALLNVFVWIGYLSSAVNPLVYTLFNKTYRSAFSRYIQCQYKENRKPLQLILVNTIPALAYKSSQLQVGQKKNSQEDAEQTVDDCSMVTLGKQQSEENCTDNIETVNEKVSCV

| SMILES | Ki [1] | Ki [2] | Ki [3] | other results |
| --- | --- | --- | --- | --- |
| COc1ccccc1N1CCN(CCCOc2ccc3c(c2)C(=O)N(C)CC3)CC1 | 992 nM | 896 nM | 1110 nM | – |
| CN1CCc2ccc(OCCCN3CCN(c4cccc(Cl)c4Cl)CC3)cc2C1=O | 16.8 nM | 68.2 nM | 20.1 nM | – |
| CN1CCc2ccc(OCCN3CCC(c4noc5cc(F)ccc45)CC3)cc2C1=O | > 10000 nM | 568 nM | > 10000 nM | – |
| CN1CCc2cc(OCCCN3CCC(c4noc5cc(F)ccc45)CC3)ccc2C1=O | 692 nM | > 10000 nM | > 10000 nM | – |
| CN1CCc2ccc(OCC(O)CN3CCC(c4noc5cc(F)ccc45)CC3)cc2C1=O (centres undefined) | 768 nM | 1240 nM | 856 nM | – |
| CN1CCc2ccc(OCCCN3CCN(c4ccccn4)CC3)cc2C1=O | 1160 nM | > 10000 nM | > 10000 nM | – |
| CN1CCc2ccc(OCCCCN3CCN(c4cccc(Cl)c4Cl)CC3)cc2C1=O | 216 nM | 316 nM | 119 nM | – |
| CC1CCc2ccc(OCCCCN3CCC(c4nsc5ccccc45)CC3)cc2C1=O (centres undefined) | 890 nM | > 10000 nM | 1300 nM | – |
| O=c1ccc2ccc(OCCCCN3CCN(c4cccc5sccc45)CC3)cc2[nH]1 [BREXPIPRAZOLE] | – | – | – | Ki [4]: 0.47 nM |
| CN1CCc2ccc(OCCCN3CCN(c4ncccn4)CC3)cc2C1=O | 65.3 nM | 1370 nM | 59.3 nM | – |
| O=C(CCCN1CCC(O)(c2ccc(Cl)cc2)CC1)c1ccc(F)cc1 [HALOPERIDOL] | – | – | – | ED50 [5]: 0.32 mg/kg; ED50 [6]: 0.09 mg/kg; selectivity ratio [7]: 3.5; selectivity ratio [8]: 2.9; ED50 [9]: 0.11 mg/kg |
| CN1CCc2ccc(OCCCN3CCN(Cc4ccc5c(c4)OCO5)CC3)cc2C1=O | 25.9 nM | > 10000 nM | 18.3 nM | – |
| O=C(CCCCN1CCC(c2noc3cc(F)ccc23)CC1)c1cc2c3c(c1)CCN3C(=O)CC2 | – | – | – | Ki [10]: 1.66 nM; Ki [11]: 616 nM; Ki [12]: 630 nM; Ki [13]: 2.9 nM; Ki [14]: 0.72 nM; Ki [15]: 8.6 nM |
| CN1CCc2ccc(OCCCN3CCN(c4cccc(C(F)(F)F)c4)CC3)cc2C1=O | 102 nM | 123 nM | 1040 nM | – |
| COc1ccccc1N1CCN(CCCCOc2ccc3c(c2)C(=O)N(C)CC3)CC1 | > 10000 nM | > 10000 nM | > 10000 nM | – |
| CN1CCc2ccc(OCCCCN3CCN(c4cccc5sccc45)CC3)cc2C1=O | – | 162 nM | 431 nM | – |
| CN1CCc2ccc(OCCCN3CCN(c4cccc5sccc45)CC3)cc2C1=O | – | – | 65.2 nM | – |

| SMILES | Ki [1] | Ki [2] | Ki [3] | other results |
| --- | --- | --- | --- | --- |
| CN1CCc2ccc(OCC(F)CN3CCC(c4noc5cc(F)ccc45)CC3)cc2C1=O (centres undefined) | 23.7 nM | 359 nM | 68.2 nM | – |
| CCN1CCc2ccc(OCCCN3CCC(c4noc5cc(F)ccc45)CC3)cc2C1=O | 92.1 nM | 249 nM | 198 nM | – |
| CN1CCc2ccc(OCCCCN3CCN(c4cccc(C(F)(F)F)c4)CC3)cc2C1=O | 132 nM | 261 nM | 1040 nM | – |
| COc1ccc(N2CCN(CCCOc3ccc4c(c3)C(=O)N(C)CC4)CC2)cc1 | > 10000 nM | > 10000 nM | > 10000 nM | – |
| CN1COc2ccc(OCCCN3CCC(c4noc5cc(F)ccc45)CC3)cc2C1=O | 598 nM | 698 nM | 187 nM | – |
| CN1CCc2ccc(OCCCN3CCN(c4ccccc4F)CC3)cc2C1=O | 306 nM | 117 nM | 262 nM | – |
| CN1CCc2ccc(OCCCN3CCN(c4ccc5ccccc5n4)CC3)cc2C1=O | > 10000 nM | > 10000 nM | 10.2 nM | – |
| O=C1CN=C(c2ccccc2Cl)c2cc([N+](=O)[O-])ccc2N1 [CLONAZEPAM] | – | – | – | Activity [16]: 5784 mm; Activity [17]: 762 mm; Activity [18]: 12188 mm |
| CN1CCc2ccc(OCCCN3CCN(c4ccc(Cl)cc4)CC3)cc2C1=O | 589 nM | 268 nM | 356 nM | – |
| CN1CCc2ccc(OCCCN3CCN(c4ccccc4)CC3)cc2C1=O | > 10000 nM | > 10000 nM | > 10000 nM | – |
| CCN(C)C(=O)Oc1cccc([C@H](C)N(C)C)c1 [RIVASTIGMINE] | – | – | – | Activity [19]: Non-Toxic; Activity [20]: Active |
| CN1CCc2ccc(OCCCN3CCN(c4ccccc4Cl)CC3)cc2C1=O | 179 nM | 391 nM | 89.2 nM | – |
| CN1CCc2ccc(OCCCN3CCN(c4ccc(F)cc4)CC3)cc2C1=O | 246 nM | 532 nM | 158 nM | – |
| CN1CCc2ccc(OCCCN3CCC(C(=O)c4ccc(F)cc4F)CC3)cc2C1=O | > 10000 nM | 902 nM | > 10000 nM | – |
| Cc1nc2n(c(=O)c1CCN1CCC(c3noc4cc(F)ccc34)CC1)CCCC2 [RISPERIDONE] | – | – | – | ED50 [5]: 1.62 mg/kg; Activity [19]: Non-Toxic; ED50 [21]: 0.04 mg/kg; ED50 [6]: 0.02 mg/kg; ED50 [9]: 0.04 mg/kg; Activity [22]: Toxic |
| Cn1ccc2ccc(OCCCN3CCC(c4noc5cc(F)ccc45)CC3)cc2c1=O | 3.5 nM | 9.2 nM | 12.1 nM | Ki [23]: 718 nM; Ki [24]: 109 nM; Ki [25]: 118 nM; Ki [26]: 129 nM; Ki [27]: 167 nM |
| CN1CCc2ccc(OCCCCN3CCC(c4noc5cc(F)ccc45)CC3)cc2C1=O | 28.3 nM | 41.6 nM | 30.6 nM | – |
